SMILES	melting point
O=C(NCc1cccc(-c2nc(=O)c3ccccc3s2)n1)c1cccs1 [Example 208, N-[[6-(4-Oxo-4H-1,3-benzothiazin-2-yl)-2-pyridyl]methyl]-2-thiophenecarboxamide]	208.5 to 209 °C
O=c1nc(-c2cccc(CSc3ccncc3)n2)sc2ccccc12 [Example 273, 2-{6-[(4-pyridylthio)methyl]-2-pyridyl}-4H-1,3-benzothiazine-4-one]	181.9 to 182.5 °C
O=c1nc(-c2ccnc(N3CCN(c4ccc(F)cc4)CC3)c2)sc2ccccc12 [Example 74, 2-{2-[4-(4-Fluorophenyl)-1-piperazinyl]-4-pyridyl}-4H-1,3-benzothiazine-4-one]	233 to 233.6 °C
O=C(O)CCCCCCc1cccc(-c2nc(=O)c3ccccc3s2)n1 [Example 307, 7-[6-(4-Oxo-4H-1,3-benzothiazin-2-yl)-2-pyridyl]heptanoic acid]	148.6 to 150.6 °C
Cc1cccc(-c2nc(=O)c3ccccc3s2)n1 [Example 136, 2-(6-Methyl-2-pyridyl)-4H-1,3-benzothiazine-4-one]	169.8 to 170.3 °C
Cc1cccc2c(=O)nc(-c3cccc(C(=O)O)n3)sc12 [Example 233, 6-(8-Methyl-4-oxo-4H-1,3-benzothiazin-2-yl)-2-pyridinecarboxylic acid]	260.5 to 260.8 °C
CC(C)(C)OC(=O)CCc1cccc(-c2nc(=O)c3ccc(C(F)(F)F)cc3s2)n1 [Example 177, tert-Butyl 3-[6-(4-oxo-7-trifluoromethyl-4H-1,3-benzothiazin-2-yl)-2-pyridyl]propanoate]	148.5 to 149.4 °C
CC(C)CCSc1cccc(-c2nc(=O)c3ccccc3s2)n1 [Example 130, 2-[6-(Isopentylthio)-2-pyridyl]-4H-1,3-benzothiazine-4-one]	103.4 to 105.1 °C
Cc1cc(CCC(=O)O)cc(-c2nc(=O)c3ccccc3s2)n1 [Example 321, 3-[2-Methyl-6-(4-oxo-4H-1,3-benzothiazin-2-yl)-4-pyridyl]propionic acid]	233.2 to 234.7 °C
N#Cc1nc(-c2nc(=O)c3ccccc3s2)ccc1CCC(=O)O [Example 340, 3-[2-Cyano-6-(4-oxo-4H-1,3-benzothiazin-2-yl)-3-pyridyl]propanoate]	283.8 °C (dec.)
CCN1CCN(c2ccnc(-c3nc(=O)c4ccccc4s3)c2)C1=O [Example 325, 2-[4-(3-Ethyl-2-oxo-1-imidazolidinyl)-2-pyridyl]-4H-1,3-benzothiazine-4-one]	211.5 to 213 °C
CN(C)C(=O)Nc1cccc(-c2nc(=O)c3ccccc3s2)n1 [Example 231, N,N-Dimethyl-N′-[6-(4-oxo-4H-1,3-benzothiazin-2-yl)-2-pyridyl]urea]	230.1 to 230.3 °C
CCCCC[S+]([O-])c1cccc(-c2nc(=O)c3ccccc3s2)n1 (stereo not shown) [Example 155, 2-[6(n-Pentylsulfinyl)-2-pyridyl]-4H-1,3-benzothiazine-4-one]	146 to 147 °C
